Test results as given in US20250215030A1, “STAT MODULATORS AND USES THEREOF” (Recludix Pharma, Inc., priority 2022, published 2025).

Columns and labels:
[1] = biological target: T1, Recombinant STAT3 protein (STAT3(G127-I722)) (Homo sapiens, UniProt P40763); assay: STAT3 Fluorescence Polarization (FP) Assay; type: binding; details: STAT3(G127-I722) 25 nM, probe 5-FAM-GpYLPQTV-NH2 2 nM, 45-minute incubation
T1 construct: STAT3(G127-I722)
Method in brief: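 STAT3(G127-I722) at 25 nM and 5-FAM-GpYLPQTV-NH2 probe at 2 nM in HEPES pH 7.4 buffer with NaCl, EDTA, Tween 20, DTT; 1% DMSO. FP read after 45 min at room temperature; IC50 by nonlinear regression of mP vs log concentration, binned A ≤100 nM to D >10 μM.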

[2] = biological target: T2, Recombinant STAT6 protein (STAT6(W123-T658)) (Homo sapiens, UniProt P42226); assay: STAT6 Fluorescence Polarization (FP) Assay; type: binding; details: STAT6(W123-T658) 250 nM, probe 5-FAM-ApYKPFQDLI-NH2 2 nM, 45-minute incubation
T2 construct: STAT6(W123-T658)
T2 sequence (P42226 123-658): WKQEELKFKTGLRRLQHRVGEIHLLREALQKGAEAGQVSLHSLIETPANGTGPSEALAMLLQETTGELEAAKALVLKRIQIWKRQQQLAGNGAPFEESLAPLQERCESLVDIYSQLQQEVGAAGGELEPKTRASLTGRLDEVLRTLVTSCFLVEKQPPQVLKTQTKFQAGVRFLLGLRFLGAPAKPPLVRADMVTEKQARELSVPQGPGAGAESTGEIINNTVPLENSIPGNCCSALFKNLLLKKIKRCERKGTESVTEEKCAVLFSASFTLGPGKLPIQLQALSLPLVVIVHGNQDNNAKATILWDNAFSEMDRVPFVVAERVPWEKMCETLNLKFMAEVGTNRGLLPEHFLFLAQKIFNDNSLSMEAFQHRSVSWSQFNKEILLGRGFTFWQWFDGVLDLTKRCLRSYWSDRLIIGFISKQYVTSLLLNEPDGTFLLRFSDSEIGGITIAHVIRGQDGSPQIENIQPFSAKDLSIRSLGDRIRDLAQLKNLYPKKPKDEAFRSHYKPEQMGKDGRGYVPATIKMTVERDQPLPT
Method in brief: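 STAT6 (W123-T658) at 250 nM mixed with 2 nM 5-FAM-ApYKPFQDLI-NH2 probe in HEPES pH 7.4 buffer with DTT and Tween 20, 1% DMSO final. Polarization read after 45 min at room temperature; IC50 by nonlinear regression of mP versus log concentration, reported in bins A–D.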

T1 sequence (P40763 127-722, species assumed): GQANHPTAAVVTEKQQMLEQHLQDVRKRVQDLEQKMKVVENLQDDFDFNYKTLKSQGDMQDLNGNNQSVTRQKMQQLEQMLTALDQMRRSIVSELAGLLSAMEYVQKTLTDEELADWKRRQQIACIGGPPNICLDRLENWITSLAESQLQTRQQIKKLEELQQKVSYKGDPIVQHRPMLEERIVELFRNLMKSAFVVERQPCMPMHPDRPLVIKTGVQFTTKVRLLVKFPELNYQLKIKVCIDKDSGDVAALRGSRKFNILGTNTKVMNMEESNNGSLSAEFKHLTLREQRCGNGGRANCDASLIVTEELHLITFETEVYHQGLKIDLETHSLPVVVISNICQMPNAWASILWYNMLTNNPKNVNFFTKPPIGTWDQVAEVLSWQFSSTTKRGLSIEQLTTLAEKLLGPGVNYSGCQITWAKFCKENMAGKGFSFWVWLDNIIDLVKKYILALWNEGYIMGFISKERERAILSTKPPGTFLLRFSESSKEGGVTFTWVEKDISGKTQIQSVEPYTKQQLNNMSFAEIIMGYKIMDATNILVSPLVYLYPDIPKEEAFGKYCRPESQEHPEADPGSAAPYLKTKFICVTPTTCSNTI

Row | SMILES | IC50 [1] | IC50 [2]
1 | Cn1cnnc1C1CN(C(=O)[C@@H]2CC[C@@H]3C[C@@H]4C[C@@H]4C[C@H](NC(=O)c4cc5cc(C(F)(F)P(=O)(O)O)ccc5s4)C(=O)N32)C1 [Compound 76, (difluoro(2-(((3S,6S,7aR,8aS,9aR)-3-(3-(4-methyl-4H-1,2,4-triazol-3-yl)azetidine-1-carbonyl)-5-oxodecahydro-1H-cyclopropa[d]pyrrolo[1,2-a]azocin-6-yl)carbamoyl)benzo[b]thiophen-5-yl)methyl)phosphonic acid] | < 0.1 µM | 3 to 30 µM
2 | O=C(N[C@H]1C[C@H]2C[C@H]2C[C@H]2CC[C@@H](C(=O)N3CC(c4[nH]nc5c4CCC5)C3)N2C1=O)c1cc2cc(C(F)(F)P(=O)(O)O)ccc2s1 [Compound 77, (difluoro(2-(((3S,6S,7aR,8aS,9aR)-5-oxo-3-(3-(2,4,5,6-tetrahydrocyclopenta[c]pyrazol-3-yl)azetidine-1-carbonyl)decahydro-1H-cyclopropa[d]pyrrolo[1,2-a]azocin-6-yl)carbamoyl)benzo[b]thiophen-5-yl)methyl)phosphonic acid] | < 0.1 µM | 3 to 30 µM
3 | O=C(N[C@H]1C[C@H]2C[C@H]2C[C@H]2CC[C@@H](C(=O)N3CC(c4nc5ccccc5[nH]4)C3)N2C1=O)c1cc2cc(C(F)(F)P(=O)(O)O)ccc2s1 [Compound 78, ((2-(((3S,6S,7aR,8aS,9aR)-3-(3-(1H-benzo[d]imidazol-2-yl)azetidine-1-carbonyl)-5-oxodecahydro-1H-cyclopropa[d]pyrrolo[1,2-a]azocin-6-yl)carbamoyl)benzo[b]thiophen-5-yl)difluoromethyl)phosphonic acid] | < 0.1 µM | 3 to 30 µM
4 | CC(C)C1(c2ccccc2)CN(C(=O)[C@@H]2CC[C@@H]3C[C@@H]4C[C@@H]4C[C@H](NC(=O)c4cc5cc(C(F)(F)P(=O)(O)O)ccc5s4)C(=O)N32)C1 [Compound 79, (difluoro(2-(((3S,6S,7aR,8aS,9aR)-3-(3-isopropyl-3-phenylazetidine-1-carbonyl)-5-oxodecahydro-1H-cyclopropa[d]pyrrolo[1,2-a]azocin-6-yl)carbamoyl)benzo[b]thiophen-5-yl)methyl)phosphonic acid] | < 0.1 µM | 3 to 30 µM
5 | O=C(N[C@H]1C[C@H]2C[C@H]2C[C@H]2CC[C@@H](C(=O)N3CC(c4ncccn4)C3)N2C1=O)c1cc2cc(C(F)(F)P(=O)(O)O)ccc2s1 [Compound 80, (difluoro(2-(((3S,6S,7aR,8aS,9aR)-5-oxo-3-(3-(pyrimidin-2-yl)azetidine-1-carbonyl)decahydro-1H-cyclopropa[d]pyrrolo[1,2-a]azocin-6-yl)carbamoyl)benzo[b]thiophen-5-yl)methyl)phosphonic acid] | < 0.1 µM | 3 to 30 µM
6 | Cc1nnc(C2CN(C(=O)[C@@H]3CC[C@@H]4C[C@@H]5C[C@@H]5C[C@H](NC(=O)c5cc6cc(C(F)(F)P(=O)(O)O)ccc6s5)C(=O)N43)C2)[nH]1 [Compound 81, (difluoro(2-(((3S,6S,7aR,8aS,9aR)-3-(3-(5-methyl-4H-1,2,4-triazol-3-yl)azetidine-1-carbonyl)-5-oxodecahydro-1H-cyclopropa[d]pyrrolo[1,2-a]azocin-6-yl)carbamoyl)benzo[b]thiophen-5-yl)methyl)phosphonic acid] | < 0.1 µM | 0.3 to 3 µM
7 | Cc1nnc(C2(C)CN(C(=O)[C@@H]3CC[C@@H]4C[C@@H]5C[C@@H]5C[C@H](NC(=O)c5cc6cc(C(F)(F)P(=O)(O)O)ccc6s5)C(=O)N43)C2)o1 [Compound 82, (difluoro(2-(((3S,6S,7aR,8aS,9aR)-3-(3-methyl-3-(5-methyl-1,3,4-oxadiazol-2-yl)azetidine-1-carbonyl)-5-oxodecahydro-1H-cyclopropa[d]pyrrolo[1,2-a]azocin-6-yl)carbamoyl)benzo[b]thiophen-5-yl)methyl)phosphonic acid] | < 0.1 µM | 0.3 to 3 µM
8 | CS(=N)(=O)CC1CN(C(=O)[C@@H]2CC[C@@H]3C[C@@H]4C[C@@H]4C[C@H](NC(=O)c4cc5cc(C(F)(F)P(=O)(O)O)ccc5s4)C(=O)N32)C1 (stereo partly drawn) [Compound 83, (difluoro(2-(((3S,6S,7aR,8aS,9aR)-3-(3-((S-methysulfonimidoyl)methyl)azetidine-1-carbonyl)-5-oxodecahydro-1H-cyclopropa[d]pyrrolo[1,2-a]azocin-6-yl)carbamoyl)benzo[b]thiophen-5-yl)methyl)phosphonic acid] | < 0.1 µM | 3 to 30 µM

Now from value to compound:

Row | IC50 [1] | IC50 [2] | SMILES
9 | < 0.1 µM | 3 to 30 µM | O=C(N[C@H]1C[C@H]2C[C@H]2C[C@H]2CC[C@@H](C(=O)N3CC(C(=O)N4CCOCC4)C3)N2C1=O)c1cc2cc(C(F)(F)P(=O)(O)O)ccc2s1 [Compound 71, (difluoro(2-(((3S,6S,7aR,8aS,9aR)-3-(3-(morpholine-4-carbonyl)azetidine-1-carbonyl)-5-oxodecahydro-1H-cyclopropa[d]pyrrolo[1,2-a]azocin-6-yl)carbamoyl)benzo[b]thiophen-5-yl)methyl)phosphonic acid]
10 | < 0.1 µM | 3 to 30 µM | CN=S(C)(=O)CC1CN(C(=O)[C@@H]2CC[C@@H]3C[C@@H]4C[C@@H]4C[C@H](NC(=O)c4cc5cc(C(F)(F)P(=O)(O)O)ccc5s4)C(=O)N32)C1 (stereo partly drawn) [Compound 72, ((2-(((3S,6S,7aR,8aS,9aR)-3-(3-((N,S-dimethylsulfonimidoyl)methyl)azetidine-1-carbonyl)-5-oxodecahydro-1H-cyclopropa[d]pyrrolo[1,2-a]azocin-6-yl)carbamoyl)benzo[b]thiophen-5-yl)difluoromethyl)phosphonic acid]
11 | < 0.1 µM | 3 to 30 µM | O=C(N[C@H]1C[C@H]2C[C@H]2C[C@H]2CC[C@@H](C(=O)N3CC(CC(F)F)(c4ccccc4)C3)N2C1=O)c1cc2cc(C(F)(F)P(=O)(O)O)ccc2s1 [Compound 73, ((2-(((3S,6S,7aR,8aS,9aR)-3-(3-(2,2-difluoroethyl)-3-phenylazetidine-1-carbonyl)-5-oxodecahydro-1H-cyclopropa[d]pyrrolo[1,2-a]azocin-6-yl)carbamoyl)benzo[b]thiophen-5-yl)difluoromethyl)phosphonic acid]
12 | < 0.1 µM | 0.3 to 3 µM | N#Cc1ccc(C2CN(C(=O)[C@@H]3CC[C@@H]4C[C@@H]5C[C@@H]5C[C@H](NC(=O)c5cc6cc(C(F)(F)P(=O)(O)O)ccc6s5)C(=O)N43)C2)cc1 [Compound 74, ((2-(((3S,6S,7aR,8aS,9aR)-3-(3-(4-cyanophenyl)azetidine-1-carbonyl)-5-oxodecahydro-1H-cyclopropa[d]pyrrolo[1,2-a]azocin-6-yl)carbamoyl)benzo[b]thiophen-5-yl)difluoromethyl)phosphonic acid]
13 | < 0.1 µM | 3 to 30 µM | COC1(c2nccn2C)CN(C(=O)[C@@H]2CC[C@@H]3C[C@@H]4C[C@@H]4C[C@H](NC(=O)c4cc5cc(C(F)(F)P(=O)(O)O)ccc5s4)C(=O)N32)C1 [Compound 75, (difluoro(2-(((3S,6S,7aR,8aS,9aR)-3-(3-methoxy-3-(1-methyl-1H-imidazol-2-yl)azetidine-1-carbonyl)-5-oxodecahydro-1H-cyclopropa[d]pyrrolo[1,2-a]azocin-6-yl)carbamoyl)benzo[b]thiophen-5-yl)methyl)phosphonic acid]
